This note sets out measurements from ChEMBL document CHEMBL3044655, “QSAR studies of 7-methyljuglone derivatives as antitubercular agents” (Med Chem Res, 2012).

This assay concerns Mycobacterium tuberculosis. As to the kind of experiment: Antitubercular activity against Mycobacterium tuberculosis H37Rv by BACTEC method. The format is functional, organism-based.

As for `CC(=O)Oc1cc(OC(C)=O)c2c(OC(C)=O)c(C)c(C)c(Cl)c2c1OC(C)=O`, the IC50 (read-out: IC50) stood at 7.7 nM and the IC50 (read-out: pIC50 (converted)) was 7.7 nM.

In the case of `COc1c(OC)c(OC(C)=O)c2c(OC(C)=O)cc(OC(C)=O)c(OC(C)=O)c2c1F`, the IC50 reads like this: (read-out: IC50) 3.9 nM; (read-out: pIC50 (converted)) 3.86 nM.

As for `CC(=O)Oc1cc(OC(C)=O)c2c(OC(C)=O)ccc(F)c2c1OC(C)=O`, the IC50 (read-out: IC50) was found to be 7.9 nM and the IC50 (read-out: pIC50 (converted)) is 7.97 nM.

Take `CC(=O)Oc1cc(OC(C)=O)c2c(OC(C)=O)ccc(Cl)c2c1OC(C)=O`: the IC50 (read-out: IC50) is 12.4 nM and the IC50 (read-out: pIC50 (converted)) was 12.2 nM.

As for `CC(=O)Oc1cc(OC(C)=O)c2c(OC(C)=O)c(C)c(C)c(F)c2c1OC(C)=O`, the IC50 is, setting by setting: (read-out: IC50) 3.3 nM; (read-out: pIC50 (converted)) 3.34 nM.

For `Cc1ccc2c(c1O)C(=O)C=CC2=O`, the IC50 is 3.1 nM (read-out: IC50) and 3.1 nM (read-out: pIC50 (converted)).

Regarding `CC(=O)Oc1cc(C)cc2c1C(=O)C=CC2=O`, the IC50 (read-out: IC50) came to 6 nM and the IC50 (read-out: pIC50 (converted)) is 6 nM.

`CC(=O)Oc1cc(C)c(Cl)c2c1C(=O)C=CC2=O`: the IC50 (read-out: IC50) is 6.3 nM and the IC50 (read-out: pIC50 (converted)) was 6.3 nM.

On to `COc1cc(C)cc2c1C(=O)C=CC2=O`, for which the IC50 by setting is: (read-out: IC50) 5.8 nM; (read-out: pIC50 (converted)) 5.8 nM.

Regarding `CC(=O)Oc1cc(OC(C)=O)c2c(OC(C)=O)c(C)cc(Cl)c2c1OC(C)=O`, the IC50 was 149 nM (read-out: IC50) and 149 nM (read-out: pIC50 (converted)).

As for `COc1cc(C)c(Cl)c2c1C(=O)C=CC2=O`, the IC50 is 7.7 nM (read-out: IC50) and 7.7 nM (read-out: pIC50 (converted)).

Consider `CCOc1c(C)cc(Cl)c2c1C(=O)C=CC2=O`, for which the IC50 runs as follows: (read-out: IC50) 12.5 nM; (read-out: pIC50 (converted)) 12.5 nM.

Regarding `CCOc1cc(C)cc2c1C(=O)C=CC2=O`, the IC50 is, setting by setting: (read-out: IC50) 6.3 nM; (read-out: pIC50 (converted)) 6.3 nM.

For `CCOc1cc(C)c(Cl)c2c1C(=O)C=CC2=O`, the IC50 runs as follows: (read-out: IC50) 36.1 nM; (read-out: pIC50 (converted)) 36.1 nM.

For the compound `CC(=O)Oc1cc(OC(C)=O)c2c(OC(C)=O)cc(C)cc2c1OC(C)=O`, the IC50 was 17.2 nM (read-out: IC50) and 17.2 nM (read-out: pIC50 (converted)).

Take `COc1c(C)cc(Cl)c2c1C(=O)C=CC2=O`: the IC50 reads like this: (read-out: IC50) 8 nM; (read-out: pIC50 (converted)) 8 nM.

In the case of `CC(=O)Oc1cc(OC(C)=O)c2c(OC(C)=O)cc(C)c(Cl)c2c1OC(C)=O`, the IC50 is 27.8 nM (read-out: IC50) and 27.8 nM (read-out: pIC50 (converted)).

As to `CC(=O)Oc1c(C)cc(Cl)c2c1C(=O)C=CC2=O`, the IC50 reads like this: (read-out: IC50) 21.1 nM; (read-out: pIC50 (converted)) 21.1 nM.

On to `Cc1cc(O)c2c(c1)C(=O)C(O)=CC2=O`, for which the IC50 was 3.1 nM (read-out: IC50) and 3.1 nM (read-out: pIC50 (converted)).

As for `Cc1cc(O)c2c(c1Br)C(=O)C=CC2=O` [5-BROMO-8-HYDROXY-6-METHYLNAPHTHALENE-1,4-DIONE], the IC50 runs as follows: (read-out: IC50) 3.6 nM; (read-out: pIC50 (converted)) 3.6 nM.

With `Cc1cc(O)c2c(c1Cl)C(=O)C=CC2=O` [5-CHLORO-8-HYDROXY-6-METHYLNAPHTHALENE-1,4-DIONE], the IC50 by setting is: (read-out: IC50) 2.5 nM; (read-out: pIC50 (converted)) 2.5 nM.

Turning to `Cc1cc(O)c2c(c1F)C(=O)C=CC2=O` [5-FLUORO-8-HYDROXY-6-METHYLNAPHTHALENE-1,4-DIONE], the IC50 runs as follows: (read-out: IC50) 7.6 nM; (read-out: pIC50 (converted)) 7.6 nM.

On to `Cc1cc(Cl)c2c(c1O)C(=O)C=CC2=O` [8-CHLORO-5-HYDROXY-6-METHYLNAPHTHALENE-1,4-DIONE], for which the IC50 was 4.6 nM (read-out: IC50) and 4.6 nM (read-out: pIC50 (converted)).

Take `O=C1C=CC(=O)c2c(O)cccc21` [JUGLONE]: the IC50 (read-out: IC50) was 1.2 nM and the IC50 (read-out: pIC50 (converted)) is 1.2 nM.

As for `Cc1cc(O)c2c(c1)C(=O)C=CC2=O` [RAMENTACEONE], the IC50 (read-out: IC50) was found to be 15.1 nM and the IC50 (read-out: pIC50 (converted)) is 15.1 nM.
